The values below come from patent US10849881B2, “Octahydro-cyclobuta[1,2-c;3,4-c′]dipyrrol-2-yl” (Hoffmann-La Roche Inc., priority 2013, dated 2020).

The target of this experiment is ATX (human His-tagged) (Homo sapiens (Human), UniProt Q13822). In words: Human ATX enzyme inhibition assay (fluorescence quenching, MR121 substrate). Format: biochemical. The settings on record: 30 nM ATX, 1 μM MR121 substrate, 30° C., pH 8.0. The protocol:
Human ATX Enzyme Inhibition Assay
ATX inhibition was measured by a fluorescence quenching assay using a specifically labeled substrate analogue (MR121 substrate). To obtain this MR121 substrate, BOC and TBS protected 6-amino-hexanoic acid (R)-3-({2-[3-(2-{2-[2-(2-amino-ethoxy)-ethoxy]-ethoxy}-ethoxy)-propionylamino]-ethoxy}-hydroxy-phosphoryloxy)-2-hydroxy-propyl ester (Ferguson et al., Org Lett 2006, 8 (10), 2023) was labeled with MR121 fluorophore (CAS 185308-24-1, 1-(3-carboxypropyl)-11-ethyl-1,2,3,4,8,9,10,11-octahydro-dipyrido[3,2-b:2′,3′-i]phenoxazin-13-ium) on the free amine of the ethanolamine side and then, after deprotection, subsequently with tryptophan on the side of the aminohexanoic acid.
Assay working solutions were made as follows:
Assay buffer (50 mM Tris-HCl, 140 mM NaCl, 5 mM KCl, 1 mM CaCl2, 1 mM MgCl2, 0.01% Triton-X-100, pH 8.0;
ATX solution: ATX (human His-tagged) stock solution (1.08 mg/mL in 20 mM bicine, pH 8.5, 0.15 M NaCl, 10% glycerol, 0.3% CHAPS, 0.02% NaN3), diluted to 1.4-2.5× final concentration in assay buffer;
MR121 substrate solution: MR121 substrate stock solution (800 μM MR121 substrate in DMSO), diluted to 2-5× final concentration in assay buffer.
Test compounds (10 mM stock in DMSO, 8 μL) were obtained in 384 well sample plates (Corning Costar #3655) and diluted with 8 μL DMSO. Row-wise serial dilutions were made by transferring 8 μL cpd solution to the next row up to row O. The compound and control solutions were mixed five times and 2 μL were transferred to 384 well assay plates (Corning Costar #3702). Then, 15 μL of 41.7 nM ATX solution was added (30 nM final concentration), mixed five times and then incubated for 15 minutes at 30° C. 10 μL of MR121 substrate solution was added (1 μM final concentration), mixed 30 times and then incubated for 15 minutes at 30′C.

For the compound `O=C(/C=C/c1ccc(OC(F)(F)F)cc1)N1C[C@@H]2[C@H](C1)[C@H]1CN(C(=O)[C@@H]3CCc4[nH]nnc4C3)C[C@@H]21` [Example 1.006, (E)-1-[(3aS,3bS,6aR,6bR)-5-((R)-4,5,6,7-tetrahydro-1H-benzotriazole-5-carbonyl)-octahydro-cyclobuta[1,2-c;3,4-c′]dipyrrol-2-yl]-3-(4-trifluoromethoxy-phenyl)-propenone], the IC50 (in general, the concentration needed to halve the response being measured) stood at 8 nM. `O=C(c1ccc2[nH]nnc2c1)N1C[C@@H]2[C@H](C1)[C@H]1CN(C(=O)c3ccc(C4CC4)c(OCC4CC4)n3)C[C@@H]21` [Example 1.087, (1H-benzotriazol-5-yl)-[(3aS,3bR,6aS,6bR)-5-(5-cyclopropyl-6-cyclopropylmethoxy-pyridine-2-carbonyl)-octahydro-cyclobuta[1,2-c;3,4-c′]dipyrrol-2-yl]-methanone] registered an IC50 of 15.3 nM. This IC50 lies about 1.9-fold higher than the previous one. As to `COCCOc1cc(C(=O)N2C[C@@H]3[C@H](C2)[C@H]2CN(C(=O)c4ccc5[nH]nnc5c4)C[C@@H]32)cc2ccccc12` [Example 1.049, [(3aS,3bS,6aR,6bR)-5-(1H-benzotriazole-5-carbonyl)-octahydro-cyclobuta[1,2-c;3,4-c′]dipyrrol-2-yl]-[4-(2-methoxy-ethoxy)-naphthalen-2-yl]-methanone], the half-maximal inhibitory concentration (IC50) is 4 nM. As to `O=C(c1cccc(-c2ccc(Cl)cc2)c1)N1C[C@@H]2[C@H](C1)[C@H]1CN(C(=O)c3ccc4[nH]nnc4c3)C[C@@H]21` [Example 1.089, (1H-benzotriazol-5-yl)-[(3aS,3bS,6aR,6bR)-5-(4′-chloro-biphenyl-3-carbonyl)-octahydro-cyclobuta[1,2-c;3,4-c′]dipyrrol-2-yl]-methanone], the IC50 came to 20 nM. For `CC1(C)CC(C(=O)N2C[C@@H]3[C@H]4CN(C(=O)c5ccc6[nH]nnc6c5)C[C@H]4[C@@H]3C2)Cc2ccccc21` (stereo partly drawn) [Example 1.055, [(3aS,3bR,6aS,6bR)-5-(1H-benzotriazole-5-carbonyl)-octahydro-cyclobuta[1,2-c;3,4-c′]dipyrrol-2-yl]-(4,4-dimethyl-1,2,3,4-tetrahydro-naphthalen-2-yl)-methanone], the half-inhibitory concentration (IC50) was 22 nM. In turn, `O=C(c1ccc2[nH]nnc2c1)N1C[C@@H]2[C@H](C1)[C@H]1CN(C(=O)C3CCc4ccccc4C3)C[C@@H]21` (stereo partly drawn) [Example 1.031, [(3aS,3bR,6aS,6bR)-5-(1H-benzotriazole-5-carbonyl)-octahydro-cyclobuta[1,2-c;3,4-c′]dipyrrol-2-yl]-(1,2,3,4-tetrahydro-naphthalen-2-yl)-methanone] returned an IC50 of 224 nM. Compared with the last compound, the IC50 is about 10-fold higher.

The compound `CCOc1cc(C(=O)N2C[C@@H]3[C@H]4CN(C(=O)c5ccc6[nH]nnc6c5)C[C@H]4[C@@H]3C2)nc2c1CCCC2` [Example 1.088] had an IC50 of 41.3 nM. On to `O=C(c1ccc2ccccc2c1)N1C[C@@H]2[C@H](C1)[C@H]1CN(C(=O)c3ccc4[nH]nnc4c3)C[C@@H]21` [Example 1.012, [(3aS,3bS,6aR,6bR)-5-(1H-benzotriazole-5-carbonyl)-octahydro-cyclobuta[1,2-c;3,4-c′]dipyrrol-2-yl]-naphthalen-2-yl-methanone], for which the 50% inhibitory concentration (IC50) was found to be 86 nM. This IC50 is about 2.1-fold higher than that of the compound before. With `O=C(c1ccc2cc(Br)ccc2c1)N1C[C@@H]2[C@H](C1)[C@H]1CN(C(=O)[C@@H]3CCc4[nH]nnc4C3)C[C@@H]21` [Example 1.016, (6-bromo-naphthalen-2-yl)-[(3aR,3bS,6aR,6bS)-5-((R)-4,5,6,7-tetrahydro-1H-benzotriazole-5-carbonyl)-octahydro-cyclobuta[1,2-c;3,4-c′]dipyrrol-2-yl]-methanone], the half-inhibitory concentration (IC50) worked out at 17 nM. Compared with the last compound, the IC50 is about 5.1-fold lower. The same measure for `O=C(c1ccc2[nH]nnc2c1)N1C[C@@H]2[C@H](C1)[C@H]1CN(C(=O)c3cc4ccccc4cn3)C[C@@H]21` [Example 1.039, [(3aR,3bS,6aR,6bS)-5-(1H-benzotriazole-5-carbonyl)-octahydro-cyclobuta[1,2-c;3,4-c′]dipyrrol-2-yl]-isoquinolin-3-yl-methanone]: 3330 nM. Next, `O=C(c1cnc(OCC(F)(F)F)c(Cl)c1)N1C[C@@H]2[C@H](C1)[C@H]1CN(C(=O)c3ccc4[nH]nnc4c3)C[C@@H]21` [Example 1.109, (1H-benzotriazol-5-yl)-{(3aS,3bS,6aR,6bR)-5-[5-chloro-6-(2,2,2-trifluoro-ethoxy)-pyridine-3-carbonyl]-octahydro-cyclobuta[1,2-c;3,4-c′]dipyrrol-2-yl}-methanone]: 301 nM; `CC(C)Oc1cc(C(=O)N2C[C@@H]3[C@H]4CN(C(=O)c5ccc6[nH]nnc6c5)C[C@H]4[C@@H]3C2)nc2cc(C(F)(F)F)ccc12` [Example 1.070, [(3aR,3bS,6aR,6bS)-5-(1H-benzotriazole-5-carbonyl)-octahydro-cyclobuta[1,2-c;3,4-c′]dipyrrol-2-yl]-(4-isopropoxy-7-trifluoromethyl-quinolin-2-yl)-methanone]: 4 nM. The compound `CC(C)Oc1cc(C(=O)N2C[C@@H]3[C@H](C2)[C@H]2CN(C(=O)c4ccc5[nH]nnc5c4)C[C@@H]32)cc2c1CCCC2` [Example 1.078, [(3aS,3bS,6aR,6bR)-5-(1H-benzotriazole-5-carbonyl)-octahydro-cyclobuta[1,2-c;3,4-c′]dipyrrol-2-yl]-(4-isopropoxy-5,6,7,8-tetrahydro-naphthalen-2-yl)-methanone] showed a half-maximal inhibitory concentration (IC50) of 3.5 nM. In turn, `O=C(c1cnc(OCC(F)(F)F)c(C(F)(F)F)c1)N1C[C@@H]2[C@H](C1)[C@H]1CN(C(=O)c3ccc4[nH]nnc4c3)C[C@@H]21` [Example 1.105, (1H-benzotriazol-5-yl)-{(3aS,3bS,6aR,6bR)-5-[6-(2,2,2-trifluoro-ethoxy)-5-trifluoromethyl-pyridine-3-carbonyl]-octahydro-cyclobuta[1,2-c;3,4-c′]dipyrrol-2-yl}-methanone] yielded an IC50 of 8 nM. For the compound `Cc1ccc2cc(C(=O)N3C[C@@H]4[C@H](C3)[C@H]3CN(C(=O)c5ccc6[nH]nnc6c5)C[C@@H]43)ccc2c1` [Example 1.013, [(3aS,3bS,6aR,6bR)-5-(1H-benzotriazole-5-carbonyl)-octahydro-cyclobuta[1,2-c;3,4-c′]dipyrrol-2-yl]-(6-methyl-naphthalen-2-yl)-methanone], inhibition was half-maximal at 54 nM (IC50). Against the preceding compound, the IC50 is about 6.8-fold higher. The same measure for `O=C(c1ccc2[nH]nnc2c1)N1C[C@@H]2[C@H](C1)[C@H]1CN(C(=O)c3cc(OCc4ccccc4)c4cc[nH]c4c3)C[C@@H]21` [Example 1.053, [(3aS,3bS,6aR,6bR)-5-(1H-benzotriazole-5-carbonyl)-octahydro-cyclobuta[1,2-c;3,4-c′]dipyrrol-2-yl]-(4-benzyloxy-1H-indol-6-yl)-methanone]: 14 nM; for `CCOc1cc(C(=O)N2C[C@@H]3[C@H]4CN(C(=O)c5ccc6[nH]nnc6c5)C[C@H]4[C@@H]3C2)nc2ccc(C(F)(F)F)cc12` [Example 1.080, (1H-benzotriazol-5-yl)-[(3aS,3bR,6aS,6bR)-5-(4-ethoxy-6-trifluoromethyl-quinoline-2-carbonyl)-octahydro-cyclobuta[1,2-c;3,4-c′]dipyrrol-2-yl]-methanone]: 2.5 nM.
